13 compounds from PubChem BioAssay (NCI) can be followed below.

Test systems include SNB-75 CNS; HOP-62 NSCLC; NCI/ADR-RES ovarian; SK-OV-3 ovarian; SF-539 CNS; HS 578T breast; LOX IMVI melanoma; HCT-116 colon; UO-31 renal; SR leukemia.
Holding throughout (assay): growth of human tumour cells (NCI), 48 h

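48-hour exposure; five concentrations; linearly interpolated endpoints. GI50: concentration for 50% inhibition of growth. TGI: concentration producing complete growth inhibition.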 Where only a bound is given, the exact number is not on record here.

Consider `COc1cnc2c(c1)C(=O)c1c-2n(CCCn2ccnc2)c(=O)c2cc(Cl)ccc12`, for which the GI50 with SNB-75 CNS was 0.219 µM; in the assay with HOP-62 NSCLC, 0.0211 µM; with NCI/ADR-RES ovarian it was 0.03 µM; in the assay on SK-OV-3 ovarian, 0.0403 µM; in the assay on SF-539 CNS it was 0.0388 µM; in the assay with HS 578T breast, 11.4 µM. The values for the GI50 in the assay with LOX IMVI melanoma, in the assay with HCT-116 colon and in the assay with UO-31 renal were 0.0198 µM, 0.0147 µM and 0.0264 µM, respectively. For the same compound, the TGI with SNB-75 CNS was 18.9 µM; with HOP-62 NSCLC, 0.0879 µM; with NCI/ADR-RES ovarian it was 12.5 µM; in the assay with SK-OV-3 ovarian, 0.303 µM; in the assay with SF-539 CNS, 0.321 µM; with HS 578T breast, more than 100 µM. Moreover, the TGI in the assay on LOX IMVI melanoma was 0.116 µM; with HCT-116 colon, 0.216 µM; in the assay with UO-31 renal, 2.34 µM.
For `[Cu+2].[O-]c1ccc2ccccc2c1N=Nc1ccccc1.[O-]c1ccc2ccccc2c1N=Nc1ccccc1`, the TGI in the assay on SNB-75 CNS, in the assay on HOP-62 NSCLC, with NCI/ADR-RES ovarian, in the assay on SK-OV-3 ovarian, with SF-539 CNS and in the assay on HS 578T breast was more than 100 µM throughout. The TGI with SR leukemia, in the assay with HCT-116 colon and with UO-31 renal was more than 100 µM throughout.
Take `O=C(O)/C(=C/c1ccccc1[N+](=O)[O-])c1ccccc1`: the TGI in the assay on SNB-75 CNS, with HOP-62 NSCLC, with SK-OV-3 ovarian, in the assay on SF-539 CNS, in the assay on LOX IMVI melanoma and with SR leukemia was more than 100 µM in each case. Further, the TGI with HCT-116 colon and with UO-31 renal was more than 100 µM each time.
In the case of `O=C(N/N=C1\CCc2ccccc2C1)N/N=C1\CCc2ccccc2C1`, the TGI in the assay with HOP-62 NSCLC, in the assay on NCI/ADR-RES ovarian, in the assay on SR leukemia, in the assay on HCT-116 colon and with UO-31 renal was more than 10 µM in each case.
Regarding `CCOC(=O)/N=C(\N)SCc1ccccc1`, the TGI with SNB-75 CNS, in the assay with HOP-62 NSCLC, in the assay with SK-OV-3 ovarian, in the assay with SF-539 CNS, with LOX IMVI melanoma and in the assay with SR leukemia was more than 100 µM throughout. In addition, the TGI with HCT-116 colon and with UO-31 renal was more than 100 µM throughout.
Turning to `CCCN(CCC)c1ccc(CO)c(C)c1`, the GI50 in the assay with SNB-75 CNS was 68.2 µM; with HOP-62 NSCLC, more than 100 µM; in the assay on NCI/ADR-RES ovarian, more than 100 µM; with SK-OV-3 ovarian, more than 100 µM; in the assay with SF-539 CNS, more than 100 µM; with HS 578T breast, 42.2 µM. In addition, the GI50 is more than 100 µM in the assay on LOX IMVI melanoma, 26.9 µM with HCT-116 colon and more than 100 µM in the assay with UO-31 renal. The TGI with SNB-75 CNS, with HOP-62 NSCLC, in the assay with NCI/ADR-RES ovarian, with SK-OV-3 ovarian, with SF-539 CNS and in the assay with HS 578T breast was more than 100 µM each time. Further, the TGI in the assay on LOX IMVI melanoma, in the assay with HCT-116 colon and in the assay on UO-31 renal was more than 100 µM throughout.
For the compound `CC(=O)OC12c3ccccc3C1CCCCCC21OCCCO1` (stereo not given), the TGI in the assay on SNB-75 CNS, in the assay on HOP-62 NSCLC, with SK-OV-3 ovarian, in the assay on SF-539 CNS, in the assay on LOX IMVI melanoma and in the assay on SR leukemia was more than 100 µM each time. For the same compound, the TGI in the assay with HCT-116 colon and in the assay on UO-31 renal was more than 100 µM in each case.
Regarding `O=C1/C(=C/c2ccccc2Cl)N=C(c2ccccc2)N1Cc1ccco1`, the GI50 in the assay with SNB-75 CNS is 50.3 µM; with HOP-62 NSCLC, more than 100 µM; with NCI/ADR-RES ovarian, more than 100 µM; with SK-OV-3 ovarian, more than 100 µM; in the assay with SF-539 CNS, 63.8 µM; in the assay on HS 578T breast, 72.8 µM. Further, the results for the GI50 in the assay with SR leukemia, with HCT-116 colon and with UO-31 renal were 26.2 µM, 18.5 µM and 55.4 µM, respectively. The TGI in the assay with SNB-75 CNS, with HOP-62 NSCLC, with NCI/ADR-RES ovarian, with SK-OV-3 ovarian, in the assay with SF-539 CNS and with HS 578T breast was more than 100 µM each time. The TGI with SR leukemia, with HCT-116 colon and in the assay on UO-31 renal was more than 100 µM each time.
As for `Nc1ccc2c(c1)C(=O)c1c(F)cccc1-2`, the TGI with SNB-75 CNS is more than 100 µM; with HOP-62 NSCLC it was more than 100 µM; in the assay with NCI/ADR-RES ovarian it was more than 100 µM; in the assay with SK-OV-3 ovarian, more than 100 µM; in the assay on SF-539 CNS it was 81.1 µM; in the assay with HS 578T breast it was more than 100 µM. For the same compound, the TGI with LOX IMVI melanoma, with HCT-116 colon and in the assay on UO-31 renal was more than 100 µM each time.
Turning to `COc1ccc(C(O)CNC(=O)c2ccccc2)cc1` (stereo not given), the TGI in the assay with SNB-75 CNS, in the assay with HOP-62 NSCLC, with NCI/ADR-RES ovarian, in the assay on SK-OV-3 ovarian, with SF-539 CNS and in the assay with HS 578T breast was more than 100 µM each time. The TGI with LOX IMVI melanoma, in the assay on SR leukemia and with HCT-116 colon was more than 100 µM throughout.
In the case of `N=C(c1ccccc1)N(O)C1CCCCC1`, the TGI in the assay with SNB-75 CNS, with HOP-62 NSCLC, in the assay on SF-539 CNS, with LOX IMVI melanoma, with SR leukemia and in the assay on HCT-116 colon was more than 100 µM each time. Moreover, the TGI in the assay on UO-31 renal was more than 100 µM.
In the case of `COC(=O)c1ccccc1NC(=O)/C(=N\NC(C)(C)C)C(C#N)c1nc(-c2ccc([N+](=O)[O-])cc2)cs1` (stereo not given), the TGI in the assay on SNB-75 CNS, in the assay on NCI/ADR-RES ovarian, in the assay with SK-OV-3 ovarian, in the assay with SF-539 CNS, in the assay on HS 578T breast and in the assay on LOX IMVI melanoma was more than 100 µM throughout. In addition, the TGI in the assay on SR leukemia, in the assay on HCT-116 colon and in the assay with UO-31 renal was more than 100 µM throughout.
For `CCCCCCCCCCCCCCCC(=O)OCC(O)C1OC(=O)C(O)=C1O` (stereo not given), the TGI was 46 µM with SNB-75 CNS; 60.3 µM with HOP-62 NSCLC; 79.8 µM in the assay on NCI/ADR-RES ovarian; more than 100 µM in the assay on SK-OV-3 ovarian; 53.2 µM with SF-539 CNS; 46.2 µM in the assay on LOX IMVI melanoma. In addition, the results for the TGI in the assay with SR leukemia, in the assay with HCT-116 colon and with UO-31 renal were more than 100 µM, 36.7 µM and 59.9 µM, respectively.
